For 21 molecules, IC50 results are on record in US20230019236A1, “PROTEIN TYROSINE PHOSPHATASE INHIBITORS AND METHODS OF USE THEREOF” (Calico Life Sciences LLC, priority 2019, published 2023).

pIC50: −log10 of the molar value. Some results are limits rather than exact numbers.

Test [1] addresses T1, His tagged PTPN2 (TC45) protein (Homo sapiens, UniProt P17706).
T1 construct: made in house
T1 sequence (P17706 with tags, fused parts or gaps isoform P17706-2): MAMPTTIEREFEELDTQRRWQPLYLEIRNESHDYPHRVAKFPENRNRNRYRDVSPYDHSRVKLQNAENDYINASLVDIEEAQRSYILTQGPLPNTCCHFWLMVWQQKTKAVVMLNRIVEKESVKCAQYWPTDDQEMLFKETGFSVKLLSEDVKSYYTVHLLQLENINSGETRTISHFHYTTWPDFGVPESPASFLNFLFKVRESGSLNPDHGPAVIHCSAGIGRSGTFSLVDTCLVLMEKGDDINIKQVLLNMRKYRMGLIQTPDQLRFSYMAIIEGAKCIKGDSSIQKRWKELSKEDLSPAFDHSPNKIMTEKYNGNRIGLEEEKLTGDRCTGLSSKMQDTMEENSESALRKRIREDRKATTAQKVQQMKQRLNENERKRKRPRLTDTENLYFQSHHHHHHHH
The experiment in a line: Mobility Shift Assay used to determine potency of PTPN2 inhibitors. The conditions noted are these: Table 2; read-out: PTPN2 MSA IC50. It is filed as biochemical. Here is the method:
Example 292: Mobility Shift Assay used to determine potency of PTPN2 inhibitors
Compound activity was determined using in house His tagged PTPN2 (TC45) protein (SEQ ID NO: 1) in an in vitro enzymatic reaction. The enzymatic assay used to determine activity was a mobility shift assay using a LabChip EZ Reader by Caliper Life Sciences. The enzymatic reaction was carried out in assay buffer (50 mM HEPES pH 7.5, 1 mM EGTA, 10 mM EDTA, 0.01% Tween® 20, and 2 mM DTT). The compounds were dispensed on a white 384 well ProxiPlate™ (PerkinElmer Catalog#6008289) plate using the Labcyte Echo at varying concentrations (12 point, 1:3 dilution). The enzyme (at 0.5 nM) was incubated with compound for 10 minutes at room temperature. Then the substrate (phosphorylated insulin receptor probe sequence: ((OG488)—{NH—CH2—CH2—O—CH2—CH2—O—CH2—CO)—T—R—D—I—(PY)—E—T—D—Y—Y—R—K—K—NH2) (SEQ ID NO: 2) was added at 2 μM to the plates and incubated for another 10 minutes at room temperature. Finally, a quench solution (water and 4-bromo-3-(2-oxo-2-propoxyethoxy)-5-(3-{[1-(phenylmethanesulfonyl)piperidin-4-yl]amino}phenyl)thiophene-2-carboxylic acid) was added to the plates, which were then run on the EZ Reader (excitation 488 nm, emission 530 nm) to measure % conversion (the amount of phosphorylated substrate which was de-phosphorylated by PTPN2). […] The % inhibition was then used to calculate the IC50 values.

In test [2] the target is T2, His tagged full-length PTP1B protein (Homo sapiens, UniProt P18031).
T2 construct: made in house
T2 sequence (P18031 with tags, fused parts or gaps): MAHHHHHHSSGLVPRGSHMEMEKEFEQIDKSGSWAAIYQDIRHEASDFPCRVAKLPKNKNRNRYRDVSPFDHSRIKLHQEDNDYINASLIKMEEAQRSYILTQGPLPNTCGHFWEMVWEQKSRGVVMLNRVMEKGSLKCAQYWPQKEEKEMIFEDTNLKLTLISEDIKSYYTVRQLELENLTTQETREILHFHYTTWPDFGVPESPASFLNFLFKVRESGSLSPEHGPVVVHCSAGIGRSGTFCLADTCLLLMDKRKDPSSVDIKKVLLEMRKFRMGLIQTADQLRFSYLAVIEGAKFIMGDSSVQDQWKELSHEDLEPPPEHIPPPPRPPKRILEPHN
Nature of the test: Mobility Shift Assay (MSA) used to determine potency of PTP1B inhibitors. The conditions noted are these: Table 2. It is filed as biochemical. The method, then:
The enzymatic assay used to determine activity is a mobility shift assay using a LabChip EZ Reader by Caliper Life Sciences. The enzymatic reaction was carried out in assay buffer (50 mM HEPES pH 7.5, 1 mM EGTA, 10 mM EDTA, 0.01% Tween® 20, and 2 mM DTT). […] The enzyme (at 0.5 nM) was incubated with compound for 10 minutes at room temperature. […] The % inhibition was then used to calculate the IC50 values.

Turning to `CC(C)(O)CCOc1ccc2c(F)c(N3CC(=O)NS3(=O)=O)c(O)cc2c1` [Compound 334, 5-[1-fluoro-3-hydroxy-6-(3-hydroxy-3-methylbutoxy)naphthalen-2-yl]-1λ^6,2,5-thiadiazolidine-1,1,3-trione], the pIC50 in test [1] is 7.00 to 8.00; in test [2], less than 7.00.
For `COc1ccc2c(F)c(N3CC(=O)NS3(=O)=O)c(O)cc2c1` [Compound 335, 5-(1-fluoro-3-hydroxy-6-methoxynaphthalen-2-yl)-11λ^6,2,5-thiadiazolidine-1,1,3-trione] the same measures were 7.00 to 8.00 and 7.00 to 8.00.
For `CC(C)(C)OC(=O)NCCOc1ccc2c(F)c(N3CC(=O)NS3(=O)=O)c(O)cc2c1` [Compound 336, tert-butyl (2-{[5-fluoro-7-hydroxy-6-(1,1,4-trioxo-1λ^6,2,5-thiadiazolidin-2-yl)naphthalen-2-yl]oxy}ethyl)carbamate] the same measures were 7.00 to 8.00 and 7.00 to 8.00.
For the molecule `NCCOc1ccc2c(F)c(N3CC(=O)NS3(=O)=O)c(O)cc2c1` [Compound 337, 5-[6-(2-aminoethoxy)-1-fluoro-3-hydroxynaphthalen-2-yl]-1λ^6,2,5-thiadiazolidine-1,1,3-trione], the pIC50 in test [1] and in test [2] was 7.00 to 8.00 each time.
Turning to `O=C1CN(c2c(O)cc3cc(OCC4CC4)ccc3c2F)S(=O)(=O)N1` [Compound 338, 5-[6-(cyclopropylmethoxy)-1-fluoro-3-hydroxynaphthalen-2-yl]-1λ^6,2,5-thiadiazolidine-1,1,3-trione], the pIC50 in test [1] and in test [2] was 7.00 to 8.00 each time.
In the case of `CC(C)CCOc1ccc2c(F)c(N3CC(=O)NS3(=O)=O)c(O)cc2c1` [Compound 339, 5-[1-fluoro-3-hydroxy-6-(3-methylbutoxy)naphthalen-2-yl]-1λ^6,2,5-thiadiazolidine-1,1,3-trione], the negative-log IC50 (pIC50) in test [1] and in test [2] was 7.00 to 8.00 each time.
For `O=C1CN(c2c(O)cc3cc(OCCCC(F)F)ccc3c2F)S(=O)(=O)N1` [Compound 340, 5-[6-(4,4-difluorobutoxy)-1-fluoro-3-hydroxynaphthalen-2-yl]-1λ^6,2,5-thiadiazolidine-1,1,3-trione], the pIC50 in test [1] and in test [2] was 7.00 to 8.00 throughout.
In the case of `C[C@@](O)(CO)CCOc1ccc2cc(O)c(N3CC(=O)NS3(=O)=O)c(F)c2c1` [Compound 341, 5-{7-[(3S)-3,4-dihydroxy-3-methylbutoxy]-1-fluoro-3-hydroxynaphthalen-2-yl}-1λ^6,2,5-thiadiazolidine-1,1,3-trione], the pIC50 in test [1] and in test [2] was greater than 9.00 in each case.
For the molecule `CC(C)(CO)CCOc1ccc2cc(O)c(N3CC(=O)NS3(=O)=O)c(F)c2c1` [Compound 342, 5-[1-fluoro-3-hydroxy-7-(4-hydroxy-3,3-dimethylbutoxy)naphthalen-2-yl]-1λ^6,2,5-thiadiazolidine-1,1,3-trione], the pIC50 in test [1] and in test [2] was greater than 9.00 each time.
On to `C[C@](O)(CO)CCOc1ccc2cc(O)c(N3CC(=O)NS3(=O)=O)c(F)c2c1` [Compound 343, 5-{7-[(3R)-3,4-dihydroxy-3-methylbutoxy]-1-fluoro-3-hydroxynaphthalen-2-yl}-1λ^6,2,5-thiadiazolidine-1,1,3-trione], for which the figures for the pIC50 in test [1] and in test [2] were greater than 9.00 and 8.00 to 9.00, respectively.
For `CC(C)(CO)CS(=O)(=O)N1CC=C(c2ccc3cc(O)c(N4CC(=O)NS4(=O)=O)c(F)c3c2)C1` [Compound 344, 5-{1-fluoro-3-hydroxy-7-[1-(3-hydroxy-2,2-dimethylpropane-1-sulfonyl)-2,5-dihydro-1H-pyrrol-3-yl]naphthalen-2-yl}-1λ^6,2,5-thiadiazolidine-1,1,3-trione] the same measures were greater than 9.00 and greater than 9.00.
As to `NCCCS(=O)(=O)N1CC=C(c2ccc3cc(O)c(N4CC(=O)NS4(=O)=O)c(F)c3c2)C1` [Compound 345, 5-{7-[1-(3-aminopropane-1-sulfonyl)-2,5-dihydro-1H-pyrrol-3-yl]-1-fluoro-3-hydroxynaphthalen-2-yl}-1λ^6,2,5-thiadiazolidine-1,1,3-trione], the pIC50 in test [1] was greater than 9.00; in test [2] it was 8.00 to 9.00.
For `C[C@@](O)(CC#N)CCOc1ccc2cc(O)c(N3CC(=O)NS3(=O)=O)c(F)c2c1` [Compound 346, (3R)-5-{[8-fluoro-6-hydroxy-7-(1,1,4-trioxo-1λ^6,2,5-thiadiazolidin-2-yl)naphthalen-2-yl]oxy}-3-hydroxy-3-methylpentanenitrile] the same measures were greater than 9.00 and greater than 9.00.
The corresponding values for `C[C@](O)(CC#N)CCOc1ccc2cc(O)c(N3CC(=O)NS3(=O)=O)c(F)c2c1` [Compound 347, (3S)-5-{[8-fluoro-6-hydroxy-7-(1,1,4-trioxo-1λ^6,2,5-thiadiazolidin-2-yl)naphthalen-2-yl]oxy}-3-hydroxy-3-methylpentanenitrile] are greater than 9.00 and 8.00 to 9.00.
For the molecule `CC(C)(CCN)CCOc1ccc2cc(O)c(N3CC(=O)NS3(=O)=O)c(F)c2c1` [Compound 348, 5-{7-[(5-amino-3,3-dimethylpentyl)oxy]-1-fluoro-3-hydroxynaphthalen-2-yl}-1λ^6,2,5-thiadiazolidine-1,1,3-trione], the pIC50 in test [1] and in test [2] was greater than 9.00 throughout.
For the molecule `CC(C)NCCCc1ccc2cc(O)c(N3CC(=O)NS3(=O)=O)c(F)c2c1` [Compound 349, 5-(1-fluoro-3-hydroxy-7-{3-[(propan-2-yl)amino]propyl}naphthalen-2-yl)-1λ^6,2,5-thiadiazolidine-1,1,3-trione], the pIC50 in test [1] and in test [2] was 8.00 to 9.00 throughout.
For the molecule `O=C1CN(c2c(O)cc3ccc(OCCC4CCOC4)cc3c2F)S(=O)(=O)N1` (stereo not drawn) [Compound 350, 5-{1-fluoro-3-hydroxy-7-[2-(oxolan-3-yl)ethoxy]naphthalen-2-yl}-1λ^6,2,5-thiadiazolidine-1,1,3-trione], the pIC50 in test [1] and in test [2] was greater than 9.00 in each case.
As for `O=C1CN(c2c(O)cc3ccc(OCCC4CCCC4)cc3c2F)S(=O)(=O)N1` [Compound 351, 5-[7-(2-cyclopentylethoxy)-1-fluoro-3-hydroxynaphthalen-2-yl]-1λ^6,2,5-thiadiazolidine-1,1,3-trione], the pIC50 in test [1] and in test [2] was greater than 9.00 in each case.
For the molecule `CC(C)(C)CCOc1ccc2cc(O)c(N3CC(=O)NS3(=O)=O)c(F)c2c1` [Compound 352, 5-[7-(3,3-dimethylbutoxy)-1-fluoro-3-hydroxynaphthalen-2-yl]-1λ^6,2,5-thiadiazolidine-1,1,3-trione], the pIC50 in test [1] and in test [2] was greater than 9.00 in each case.
On to `O=C1CN(c2c(O)cc3ccc(OCCC4CCC4)cc3c2F)S(=O)(=O)N1` [Compound 353, 5-[7-(2-cyclobutylethoxy)-1-fluoro-3-hydroxynaphthalen-2-yl]-1λ^6,2,5-thiadiazolidine-1,1,3-trione], for which the pIC50 in test [1] and in test [2] was greater than 9.00 throughout.
On to `O=C1CN(c2c(O)cc3ccc(OCCOC(F)(F)F)cc3c2F)S(=O)(=O)N1` [Compound 354, 5-{1-fluoro-3-hydroxy-7-[2-(trifluoromethoxy)ethoxy]naphthalen-2-yl}-1λ^6,2,5-thiadiazolidine-1,1,3-trione], for which the pIC50 in test [1] and in test [2] was 8.00 to 9.00 in each case.
